The text below walks through data of US10913757B2, “Hydroxycinnamic derivatives, methods and uses thereof” (UNIVERSIDADE DO PORTO, priority 2016, dated 2021).

Series [1] in a line: ABTS radical cation scavenging activity (TAC assay). It is filed as biochemical. Conditions: ethanol. An excerpt:
(§1) In an embodiment, the AntiOxCINs antioxidant ranking activity hierarchy was established by in vitro non-cell methods. The selected total antioxidant capacity (TAC) assays (DPPH, ABTS and GO) involved the spectrophotometric measurement of the radical absorbance decrease as a result of an in situ radical deactivation by an antioxidant. Compounds with higher antioxidant activity display lower IC50 values. […] This decrease was attenuated/ameliorated by the increment of the spacer length and/or the introduction of additional hydroxyl group in the aromatic ring.
(§2) The radical scavenging activity of AntiOxCINs was evaluated by means of total antioxidant capacity assays based on DPPH., ABTS.^+ and GO. radicals. All these methods involved the spectrophotometric measurement of the absorbance decrease resulting from radical (DPPH., ABTS.^+ or GO.) deactivation with an antioxidant. The results were expressed in IC50, which is defined as the minimum antioxidant concentration necessary to reduce the amount of radical by 50%. Antioxidant assays were performed in a multiplate reader (Powerwave XS Microplate Reader) of Bio-Tech instruments.
In an embodiment, the ABTS.^+ scavenging activity was evaluated as follows: ethanolic solutions of the test compounds with increasing concentrations (range between 10 μM and 500 μM) were prepared. ABTS.^+ radical cation solution was obtained by addition of 150 mM aqueous potassium persulfate solution (163 μL) to 10 mL of 7 mM aqueous ABTS solution followed by storage in the dark at room temperature for 16 h (2.45 mM final concentration). The solution was then diluted in ethanol to reach the absorbance of 0.72±0.02. After addition of the compound (20 μL), in triplicate, to ABTS.^+ solution (180 μL) the spectrophotometric measurement was carried out each minute over 15 minutes. […] Dose-response curves were established for the determination of IC50 values. Data are means±SEM of three independent experiments.

Series [2] in a line: Lipophilic properties by electrochemistry at ITIES (transfer potential). It is filed as physicochemical. Conditions: aqueous phase to 1,6-dichlorohexane, DPV, C=0.32 mM. The protocol: In an embodiment, AntiOxCINs lipophilic properties were evaluated at physiological pH by electrochemistry. The used technique is often used to mimic the transfer of ionic drugs through biological membranes as the process occurs at the interface between two immiscible electrolyte solutions (ITIES). The transfer potential (Etr) at which the ionic drug, initially present in the aqueous phase (C=0.32 mM), is transferred to the 1,6-dichlorohexane (DCH) phase is measured by differential pulse voltammetry (DPV). In the ITIES model, the transfer potential (Etr) becomes less positive with the increasing of the drug lipophilic character.
In an embodiment, the electrochemical analytical data was obtained using a computer controlled potentiostat Autolab PGSTAT302N (Metrohm Autolab, Utrecht, Netherlands). Generally, cyclic voltammetry (CV) data was acquired at a scan rate of 50 mVs^−1. Differential pulse voltammetry (DPV) results were acquired at a step potential of 4 mV, pulse amplitude of 50 mV and scan rate of 8 mVs^−1. The electrochemical signals were monitored by the General Purpose Electrochemical System (GPES) version 4.9, software package. All electrochemical experiments were performed at room temperature in an electrochemical cell that was placed in a Faraday cage in order to minimize the contribution of background noise to the analytical signal.
In an embodiment, the process of evaluation of AntiOxCINs redox properties was conducted as follows: stock solutions of each compound (10 mM) were prepared by dissolving the appropriate amount in ethanol. The voltammetric working solutions were prepared in the electrochemical cell, at a final concentration of 0.1 mM. The […] supporting electrolyte was prepared by diluting […] to 100 mL. Voltammetric data was acquired in a three-electrode system consisting of a glassy carbon electrode (GCE, d=2 mm) as working electrode, a counter electrode of platinum wire and a saturated Ag/AgCl reference electrode. In an embodiment, the evaluation of AntiOxCINs lipophilic properties was performed as follows: the electrochemical cell was a four-electrode system with arrays of micro liquid-liquid interfaces (μlTIES) containing two Ag/AgCl reference electrodes and two counter electrodes of Pt, one in each phase. The microporous membrane was sealed with a fluorosilicone sealant (Dow Corning 730) onto a glass cylinder which was filled with 4.0 mL of the aqueous phase, where the aliquots of AntiOxCINs solutions were added. The membrane was then immersed into the organic phase contained in the cell. The organic phase reference solution (a 2 mM BTPPACI+2 mM NaCl aqueous solution) was mechanically stabilized The aqueous supporting electrolyte solution was a Tris-HCl buffer 10 mM pH 7.0.

A short description of series [3]: GO radical scavenging activity (TAC assay). It is filed as biochemical. Conditions: ethanol, absorbance 428 nm.
Source text: as §1, §2
In an embodiment, the GO′ scavenging activity was evaluated as follows: solutions of test compounds with concentrations from 5 μM to 75 μM were prepared in ethanol. An ethanolic solution of 5 mM GO′ was prepared and diluted to reach the absorbance of 1.00±0.02 at 428 nm. The addition (20 μL) in triplicate of compound solution to GO. solution (180 μL) was followed by absorbance measurement at 428 nm over 30 minutes, in the dark, at room temperature. […] Dose-response curves were established for the determination of IC50 values. Data are means±SEM of three independent experiments.

`CS(=O)(=O)[O-].O=C(/C=C/c1ccc(O)c(O)c1)NCCCCCC[P+](c1ccccc1)(c1ccccc1)c1ccccc1` [AntiOxCIN2, (E)-(6-(3-(3,4-dihydroxyphenyl)prop-2-enamido)hexyl)triphenylphosphonium methanesulfonate]: the figures for the 50% inhibitory concentration (IC50) in series [1] and in series [3] were 30.5 µM and 4.1 µM, respectively. In addition, the “Etr (transfer potential)” value in series [2] was found to be 0.396 V.

With `CS(=O)(=O)[O-].O=C(/C=C/c1ccc(O)c(O)c1)NCCCCCCCC[P+](c1ccccc1)(c1ccccc1)c1ccccc1` [AntiOxCIN3, (E)-(8-(3-(3,4-dihydroxyphenyl)acrylamido)octyl)triphenylphosphoniummethanesulfonate], the concentration for half-maximal inhibition (IC50) in series [1] was determined as 27.9 µM; in series [3], 2.8 µM. For the same compound, the “Etr (transfer potential)” value in series [2] was determined as 0.345 V.

For `CS(=O)(=O)[O-].O=C(/C=C/c1cc(O)c(O)c(O)c1)NCCCCCC[P+](c1ccccc1)(c1ccccc1)c1ccccc1` [AntiOxCIN4, (E)-(6-(3-(3,4,5-trihydroxyphenyl)prop-2-enamido)hexyl)triphenylphosphonium methanesulfonate], the IC50 in series [1] was 12.2 µM; in series [3], 3.1 µM. For the same compound, the “Etr (transfer potential)” value in series [2] is recorded as 0.498 V.

On to `CS(=O)(=O)[O-].O=C(/C=C/c1cc(O)c(O)c(O)c1)NCCCCCCCC[P+](c1ccccc1)(c1ccccc1)c1ccccc1` [AntiOxCIN5, (E)-(8-(3-(3,4,5-trihydroxyphenyl)acrylamido)octyl)triphenylphosphonium methanesulfonate], for which the IC50 turned out to be 8.7 µM in series [1] and 2.3 µM in series [3]. Also, in series [2], the “Etr (transfer potential)” value amounted to 0.423 V.

On to `CS(=O)(=O)[O-].O=C(/C=C/c1ccc(O)c(O)c1)NCCCCCCCCCC[P+](c1ccccc1)(c1ccccc1)c1ccccc1` [AntiOxCIN6, (E)-(10-(3-(3,4-dihydroxyphenyl)acrylamido)decyl)triphenylphosphonium methanesulfonate], for which the 50% inhibitory concentration (IC50) was 23.5 µM in series [1] and 2.7 µM in series [3]. In addition, the “Etr (transfer potential)” value in series [2] was determined as 0.291 V.

For the compound `CS(=O)(=O)[O-].O=C(/C=C/c1cc(O)c(O)c(O)c1)NCCCCCCCCCC[P+](c1ccccc1)(c1ccccc1)c1ccccc1` [AntiOxCIN7, (E)-(10-(3-(3,4,5-trihydroxyphenyl)acrylamido)decyl)triphenylphosphonium methanesulfonate], the IC50 was determined as 7.5 µM in series [1] and 2.5 µM in series [3]. The “Etr (transfer potential)” value in series [2] was 0.377 V.

With `O=C(O)/C=C/c1ccc(O)c(O)c1` [Caffeic acid, caffeic acid, reference compound], the half-maximal inhibitory concentration (IC50) was found to be 17.9 µM in series [1] and 3.4 µM in series [3].
